Test results from US20220009894A1, “1,2,3,4-TETRAHYDROQUINOXALINE DERIVATIVE, PREPARATION METHOD THEREFOR AND APPLICATION THEREOF” (Abbisko Therapeutics Co., Ltd., priority 2019, published 2022).

Tests used:
RORγt-LBD = biological target: T1, RORγt-LBD (Homo sapiens, UniProt P51449); assay: Time-resolved fluorescence resonance energy-transfer assay (TR-FRET), co-activator peptide recruitment; assay type: biochemical; design: TR-FRET Biochemical Amax: unit not given here; details: for EC50: His-RORγt-LBD 30 nM, SRC peptide 500 nM, agonistic activity, averages of one or more measurements, read-out: TR-FRET Biochemical EC50/; for TR-FRET Biochemical Amax: upper activation limit, His-RORγt-LBD, SRC peptide
T1 sequence (P51449 269-508 limits assumed): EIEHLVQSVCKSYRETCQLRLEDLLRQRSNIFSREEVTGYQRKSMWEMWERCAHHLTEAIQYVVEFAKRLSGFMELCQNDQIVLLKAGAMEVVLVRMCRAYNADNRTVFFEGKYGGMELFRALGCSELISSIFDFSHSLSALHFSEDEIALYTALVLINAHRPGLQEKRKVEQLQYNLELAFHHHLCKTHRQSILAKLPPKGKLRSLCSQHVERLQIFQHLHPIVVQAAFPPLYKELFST
Description: I. Time-Resolved Fluorescence Resonance Energy-Transfer Assay (TR-FRET)
This experiment was a screening experiment for RORγt nuclear receptor agonists based on TR-FRET technology. When His-labeled RORγt-LBD receptor binds to receptor agonists, it may increase the recruitment of biotin-labeled co-activator peptides. Europium-His-RORγt-LBD is indirectly labeled by donor (Eu) by binding to Eu-anti-His antibody. Once Eu is activated by an energy source (such as flashlight or laser), the energy will be transferred to the co-activator indirectly labeled by allophycocyanin by binding of allophycocyanin-streptavidin and biotin-labeled co-activator. • 1. 10× buffer (500 mM Tris-HCl, 500 mM KCl, and 10 mM Na-EDTA) was prepared, pH value was adjusted to 7.0. The buffer was stored at 4° C. for later use and was restored to normal temperature before experiment; • 2. The 10× buffer was diluted to 1× with pure water. Final concentration of 0.01% Triton X-100 and 1 mM DTT (dithiothreitol) were added to prepare the assay buffer; • 3. DMSO was used to prepare 1000× compound stock solution. The compound solution was serial-diluted in 5-fold for 7 concentrations from the top concentration of 1000 nM/10000 nM. Then the 10× compound solution was prepared with assay buffer. An amount of 2 μL was aliquoted into the 20 μL system; • 4. 5×RORγt-LBD protein solution was unfreezed, and a solution of 5× concentration was prepared with assay buffer to obtain a final concentration of 30 nM. The whole operation was carried out on ice; • 5. 5×SRC peptide was unfreezed, and a solution of 5× concentration was prepared with assay buffer to obtain a final concentration of 500 nM. The whole operation was carried out on ice; • 6. 4 μL/well of RORγt-LBD receptor was added into the testing wells of 384-well plate, and the same amount of assay buffer was added to the control wells of non-RORγt-LBD group; • 7. 2 μL of compound was added into each well of 384-well plate; • 8. 4 μL of SRC peptide was added into each well of 384-well plate; • 9. 2× Eu-anti-6× His/APC-Streptavidin was diluted with Lance detection buffer to a final concentration of 0.25 nM and 5 nM, respectively, and then 10 μL of 2× Eu-anti-6× His/APC-Streptavidin was added into each well of 384-well plate; • 10. The mixed solution was incubated at 4° C. overnight; • 11. On the morning of the next day, the 384-well plate was incubated at room temperature for 1 hr. Then the corresponding signal values were read with PerkinElmer EnVision at a wavelength of 665/615 […]. The agonistic activity of the corresponding compound was calculated with Graphpad Prism 7.0 software.

RORγt = biological target: T2, RORγt (Homo sapiens, UniProt P51449); assay: RORγt cellular reporter gene detection assay; assay type: cell-based; details: 24 hrs; for EC50: HEK 293 cells co-transfected with pFN26A-RORγt-LBD and pG14.35, in presence of antagonist Ursolic acid, top concentration 50 μM; for Cellular Reporter Assay Amax: upper activation limit, HEK 293 cells, in presence of antagonist Ursolic acid;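 on Cellular Reporter Assay Amax: Ursolic Acid added as 5 µL of 20 µM medium per well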
T2 construct: The plasmid of pFN26A-RORγt-LBD and pG14.35 (Promega, Cat. No. E1370) were co-transfected into HEK 293 cells; expressed in transfected cells; host or cells: HEK 293 cells (Cat. No. GNHu18)
T2 sequence (P51449 269-508 limits assumed): T1 sequence (P51449 269-508 limits assumed)
Description: II. RORγt Cellular Reporter Gene Detection Assay
In this experiment, RORγt Reporter Gene Detection method was used to evaluate the activation and specificity of compounds to RORγt in cells. The plasmid of pFN26A-RORγt-LBD and pG14.35 (Promega, Cat. No. E1370) were co-transfected into HEK 293 cells (Cat. No. GNHu18). The efficacy of compounds was evaluated with the presence of an antagonist Ursolic acid (Selleck, Cat. No. S2370-100 mg). The specific experimental process was as follow: • 1. The plasmids-co-transfected cells were inoculated into a 96-well plate (Corning, Cat. No 3610) in a fresh DMEM medium (Gibco, cat. No. 1773536) containing 10% fetal bovine serum (Gibco, Cat. No. 10099-141) at 30000 cells/40 μL/well; • 2. 5 μL of medium containing 20 μM Ursolic acid was added thereto; • 3. The dose effect was evaluated by a 4-fold dilution of the test compound starting from 50 μM; • 4. 5 μL of medium containing a compound concentration of 10-fold of its final test concentration was added; • 5. After the cells were incubated at 37° C. and 5% CO2 for 24 hrs, 50 μL of detection reagent was added to detect firefly fluorescence using PerkinElmerEnVision, and 50 μL of the second detection reagent was added to detect sea kidney fluorescence; • 6. A four-parameter curve simulated in GraphPad Prism was used to determine the concentration for 50% activation (EC50) and the upper activation limit (Amax) for each compound.

EC50 (RORγt-LBD)	TR-FRET Biochemical Amax (RORγt-LBD)	EC50 (RORγt)	Cellular Reporter Assay Amax (RORγt)	Structure (SMILES)
0.0176 µM	0.94	0.273 µM	5.5	C/C(=C\c1ccc2c(c1)N(S(=O)(=O)c1cccc(C(F)(F)F)c1)C[C@@H]1CN(CC(=O)O)CCN21)c1c(F)cccc1Cl [Example 21, (S,E)-2-(8-(2-(2-chloro-6-fluoro-phenyl)prop-1-en-1-yl)-6-((3-(trifluoromethyl)phenyl)sulfonyl)-1,2,4,4a,5,6-hexa-hydro-3H-pyrazino[1,2-a]quinoxalin-3-yl)acetic acid]
0.00151 µM	0.62	0.245 µM	3.3	CC1(C)C=C(c2ccc3c(c2)N(S(=O)(=O)c2cccc(C(F)(F)F)c2)C[C@@H]2CN(CC(=O)O)CCN32)CC(C)(C)O1 [Example 22, (S)-2-(8-(2,2,6,6-tetramethyl-3,6-dihydro-2H-pyran-4-yl)-6-((3-(trifluoromethyl)phenyl)sulfonyl)-1,2,4,4a,5,6-hexa-hydro-3H-pyrazino[1,2-a]quinoxalin-3-yl)acetic acid]
0.0172 µM	0.79	1.07 µM	3.8	COC(=O)C(C)N1CCN2c3ccc(/C=C(\C)c4c(F)cccc4Cl)cc3N(S(=O)(=O)c3cccc(C(F)(F)F)c3)C[C@@H]2C1 (stereo partly drawn) [Example 23, methyl 2-((S)-8-((E)-2-(2-chloro-6-fluorophenyl)prop-1-en-1-yl)-6-((3-(trifluoromethyl)phenyl)sulfonyl)-1,2,4,4a,5,6-hexahydro-3H-pyrazino[1,2-a]quinoxalin-3-yl)propanoate]
0.0315 µM	0.92	0.0485 µM	2.4	COC(=O)C(C)N1CCN2c3ccc(C4=CC(C)(C)OC(C)(C)C4)cc3N(S(=O)(=O)c3cccc(C(F)(F)F)c3)C[C@@H]2C1 (stereo partly drawn) [Example 24, methyl 2-((S)-8-(2,2,6,6-tetramethyl-3,6-dihydro-2H-pyran-4-yl)-6-((3-(trifluoro-methyl)phenyl)sulfonyl)-1,2,4,4a,5,6-hexahydro-3H-pyrazino[1,2-a]qui-noxalin-3-yl)propanoate]
0.00635 µM	0.84	0.441 µM	4.4	C/C(=C\c1ccc2c(c1)N(S(=O)(=O)c1cccc(C(F)(F)F)c1)C[C@@H]1CN(C(C)C(=O)O)CCN21)c1c(F)cccc1Cl (stereo partly drawn) [Example 25, 2-((S)-8-((E)-2-(2-chloro-6-fluorophenyl)prop-1-en-1-yl)-6-((3-(trifluoromethyl)phenyl)sulfonyl)-1,2,4,4a,5,6-hexahydro-3H-pyrazino[1,2-a]quinoxalin-3-yl) propanoic acid]
0.0296 µM	0.64	0.404 µM	2.3	CC(C(=O)O)N1CCN2c3ccc(-c4cc(F)cc(OC(F)F)c4)cc3N(S(=O)(=O)c3cccc(C(F)(F)F)c3)C[C@@H]2C1 (stereo partly drawn) [Example 26, 2-((S)-8-(3-(difluorome-thoxy)-5-fluorophenyl)-6-((3-(trifluoromethyl)phe-nyl)sulfonyl)-1,2,4,4a,5,6-hexahydro-3H-pyrazino[1,2-a]quinoxalin-3-yl) propanoic acid]
0.00525 µM	0.61	0.228 µM	3.9	CC(C(=O)O)N1CCN2c3ccc(C4=CC(C)(C)OC(C)(C)C4)cc3N(S(=O)(=O)c3cccc(C(F)(F)F)c3)C[C@@H]2C1 (stereo partly drawn) [Example 27, 2-((S)-8-(2,2,6,6-tetrameth-yl-3,6-dihydro-2H-pyran-4-yl)-6-((3-(trifluorometh-yl)phenyl)sulfonyl)-1,2,4,4a,5,6-hexahydro-3H-pyrazino[1,2-a]quinoxalin-3-yl)propanoic acid]
0.0147 µM	0.86	0.354 µM	2.6	N#CCC(=O)N1CCN2c3ccc(-c4cc(F)cc(OC(F)F)c4)cc3N(S(=O)(=O)c3cccc(C(F)(F)F)c3)C[C@@H]2C1 [Example 28, (S)-3-(8-(3-(difluoromethoxy)-5-fluorophenyl)-6-((3-(trifluoromethyl)phenyl)sulfonyl)-1,2,4,4a,5,6-hexahydro-3H-pyrazino[1,2-a]quinoxalin-3-yl)-3-oxopropanenitrile]
0.0173 µM	0.84	1.98 µM	6.7	N#CCC(=O)N1CCN2c3ccc(/C=C/c4c(Cl)cccc4C(F)(F)F)cc3N(S(=O)(=O)c3cccc(C(F)(F)F)c3)C[C@@H]2C1 [Example 29, (S,E)-3-(8-(2-chloro-6-(tri-fluoromethyl)styryl)-6-((3-(trifluoromethyl)phenyl)sulfonyl)-1,2,4,4a,5,6-hexa-hydro-3H-pyrazino[1,2-a]quinoxalin-3-yl)-3-oxopro-panenitrile]
0.00834 µM	0.80	0.404 µM	4.0	C/C(=C\c1ccc2c(c1)N(S(=O)(=O)c1cccc(C(F)(F)F)c1)C[C@@H]1CN(C(=O)CC#N)CCN21)c1c(F)cccc1Cl [Example 30, (S,E)-3-(8-(2-(2-chloro-6-fluorophenyl)prop-1-en-1-yl)-6-((3-(trifluoromethyl)phenyl)sulfonyl)-1,2,4,4a, 5,6-hexahydro-3H-pyrazino [1,2-a]quinoxalin-3-yl)-3-oxopropanenitrile]
0.0115 µM	0.97	0.419 µM	3.4	CC1(C)C=C(c2ccc3c(c2)N(S(=O)(=O)c2cccc(C(F)(F)F)c2)C[C@@H]2CN(C(=O)CC#N)CCN32)CC(C)(C)O1 [Example 31, (S)-3-oxo-3-(8-(2,2,6,6-tetramethyl-3,6-dihydro-2H-pyran-4-yl)-6-((3-(trifluoro-methyl)phenyl)sulfonyl)-1,2,4,4a,5,6-hexahydro-3H-pyrazino[1,2-a]quinoxa-lin-3-yl)propanenitrile]
0.0108 µM	0.93	0.599 µM	4.3	O=S(=O)(c1cccc(C(F)(F)F)c1)N1C[C@@H]2CN(C3COC3)CCN2c2ccc(/C=C/c3c(Cl)cccc3C(F)(F)F)cc21 [Example 32, (S,E)-8-(2-chloro-6-(trifluoromethyl)styryl)-3-(oxetan-3-yl)-6-((3-(trifluoromethyl)phenyl)sulfonyl)-2,3,4,4a,5,6-hexahydro-1H-pyrazino[1,2-a]quinoxaline]
